Columns and labels:
[1] = test system: MCF7 breast tumour cells; experiment: MCF7 proliferation assay; assay type: cell-based, human; settings: Homo sapiens, MCF7, 96 h; 4 days incubation, crystal violet staining
Method: Cultivated human MCF7 breast tumour cells (ATCC HTB-22) were plated out in a density of 5000 cells/measurement point in 200 μl of growth medium (RPMI1640, 10% foetal calf serum, 2 mU/mL insulin, 0.1 nM oestradiol) in a 96-well multititre plate. After 24 hours, the cells from a plate (zero plate) were stained with crystal violet (see below), while the medium in the other plates was replaced by fresh culture medium (200 μl) to which the test substances had been added in various concentrations (0 μM, and in the range 0.1-30 μM; the final concentration of the solvent dimethyl sulphoxide was 0.5%). The cells were incubated in the presence of the test substances for 4 days. The cell proliferation was determined by staining the cells with crystal violet: the cells were fixed by adding 20 μl/measurement point of an 11% strength glutaraldehyde solution at room temperature for 15 min. After the fixed cells had been washed three times with water, the plates were dried at room temperature. The cells were stained by adding 100 μl/measurement point of a 0.1% strength crystal violet solution (pH adjusted to pH 3 by adding acetic acid). After the stained cells had been washed three times with water, the plates were dried at room temperature. The dye was dissolved by adding 100 μl/measurement point of a 10% strength acetic acid solution, and the extinction was determined by photometry at a wavelength of 595 nm. The percentage change in cell growth was calculated by normalizing the measurements to the extinctions of the zero point plate (=0%) and the extinction of the untreated (0 μM) cells (=100%). The IC50 values were determined by means of a 4-parameter fit using the company's own software.

[2] = target: T1, CDK2/CycE (Homo sapiens, UniProt P24941); experiment: CDK2/CycE kinase assay; assay type: biochemical; settings: 0.5 μM ATP, histone IIIS, 22° C., 10 min
T1 construct: GST; purchased ProQinase GmbH, Freiburg; host or cells: baculovirus-infected insect cells (Sf9)
Method: Recombinant CDK2- and CycE-GST fusion proteins, purified from baculovirus-infected insect cells (Sf9), were purchased from ProQinase GmbH, Freiburg. The histone IIIS used as kinase substrate was purchased from Sigma.
(§1) CDK2/CycE (50 ng/measurement point) was incubated in the presence of various concentrations of test substances (0 μM, and within the range 0.01-100 μM) in assay buffer [50 mM Tris/HCl pH 8.0, 10 mM MgCl2, 0.1 mM Na ortho-vanadate, 1.0 mM dithiothreitol, 0.5 μM ATP, 10 μg/measurement point histone IIIS, 0.2 μCi/measurement point ^33P-gamma-ATP, 0.05% NP40, 1.25% dimethyl sulphoxide] at 22° C. for 10 min. The reaction was stopped by adding EDTA solution (250 mM, pH 8.0, 15 μl/measurement point).
15 μl of each reaction mixture were loaded onto P30 filter strips (from Wallac), and non-incorporated ^33P-ATP was removed by washing the filter strips three times in 0.5% strength phosphoric acid for 10 min each time.
(§2) After the filter strips had been dried at 70° C. for 1 hour, the filter strips were covered with scintillator strips (MeltiLex™ A, from Wallac) and baked at 90° C. for 1 hour. The amount of incorporated ^33P (substrate phosphorylation) was determined by scintillation measurement in a gamma radiation counter (Wallac).

[3] = target: T2, CDK1/CycB (Homo sapiens, UniProt P06493); experiment: CDK1/CycB kinase assay; assay type: biochemical; settings: 0.5 μM ATP, histone IIIS, 22° C., 10 min
T2 construct: GST; purchased ProQinase GmbH, Freiburg; host or cells: baculovirus-infected insect cells (Sf9)
Method: as §1, with “Recombinant CDK1- and CycB-GST fusion proteins, purified from baculovirus-infected insect cells (Sf9), were purchased from ProQinase GmbH, Freiburg. The histone IIIS used as kinase substrate can be purchased from Sigma. CDK1/CycB (200” for “CDK2/CycE (50”
as §2, with “15 μl of each reaction mixture were loaded onto P30 filter strips (from Wallac), and non-incorporated ^33P-ATP was removed by washing the filter strips three times in 0.5% strength phosphoric acid for 10 min each time. After” for “After”

[4] = target: T3, KDR (VEGFR2) (Homo sapiens, UniProt P35968); experiment: KDR kinase assay; assay type: biochemical; settings: 10 μM ATP, 22° C., 45 min, HTRF
T3 construct: made in house; host or cells: E. coli
Method: Recombinant KDR protein was expressed in E. coli and then purified. The kinase substrate used was the biotinylated peptide having the amino acid sequence biotin-DFGLARDMYDKEYYSVG, which was purchased from Biosynthan. KDR [test volume 5 μl] was incubated in the presence of various concentrations of test substances (0 μM, and 10 measurement points within the range 0.001-20 μM in duplicate) in assay buffer [50 mM HEPES pH 7.0, 25.0 mM MgCl2, […], 0.1 mM Na ortho-vanadate, 1.0 mM dithiothreitol, 0.001% NP40, 10 μM ATP, 0.03 μM substrate peptide […], 1.0% dimethyl sulphoxide] at 22° C. for 45 min. The reaction was stopped by adding 5 μl of an EDTA/detection solution [50 mM HEPES pH 7.5, 125 mM EDTA, 0.2% BSA, 0.1 μM streptavidin-XLent (from CisBio), 2 nM PT66-Eu (from PerkinElmer)]. The fluorescence emission at 620 nm and 665 nm after excitation with light of the wavelength 350 nm was measured in a Rubystar HTRF instrument from BMG Labsystems.
The measured data (ratio of emission 665 divided by emission 620 multiplied by 10 000) were normalized to 0% inhibition (enzyme reaction without inhibitor) and 100% inhibition (all assay components apart from enzyme). The IC50 values were determined by means of a 4-parameter fit using the company's own software.

[5] = target: T4, Aurora-C (Homo sapiens, UniProt Q9UQB9); experiment: Aurora-C kinase assay; assay type: biochemical; settings: 3 μM ATP, 22° C., 90 min
T4 construct: made in house; host or cells: transiently transfected HEK293 cells
T4 sequence (Q9UQB9 1-309): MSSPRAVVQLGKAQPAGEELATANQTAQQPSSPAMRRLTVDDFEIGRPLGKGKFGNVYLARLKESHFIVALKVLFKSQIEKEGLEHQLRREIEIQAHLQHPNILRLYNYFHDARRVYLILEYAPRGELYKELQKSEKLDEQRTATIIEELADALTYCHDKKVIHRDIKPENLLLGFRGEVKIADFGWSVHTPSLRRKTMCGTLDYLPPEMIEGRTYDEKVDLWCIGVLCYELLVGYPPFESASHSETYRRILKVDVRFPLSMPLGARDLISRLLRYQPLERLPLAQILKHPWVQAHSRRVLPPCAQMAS
Method: Recombinant Aurora-C protein was expressed in transiently transfected HEK293 cells and then purified. The kinase substrate used was the biotinylated peptide having the amino acid sequence biotin-FMRLRRLSTKYRT, which was purchased from Jerini AG in Berlin.
Aurora-C [5 nM in the test mixture, test volume 5 μl] was incubated in the presence of various concentrations of test substances (0 μM and 10 measurement points within the range 0.001-20 μM in duplicate) in assay buffer [25 mM HEPES pH 7.4, 0.5 mM MnCl2, 0.1 mM Na ortho-vanadate, 2.0 mM dithiothreitol, 0.05% bovine serum albumin (BSA), 0.01% Triton X-100, 3 μM adenosine trisphosphate (ATP), 0.67 nCi/μl gamma-^33P-ATP, 2.0 μM substrate peptide biotin-FMRLRRLSTKYRT, 1.0% dimethyl sulphoxide] at 22° C. for 90 min. The reaction was stopped by adding 12.5 μl of an EDTA/detection solution [16 mM EDTA, 40 mM ATP, 0.08% Triton X-100, 4 mg/ml PVT streptavidin SPA beads (from Amersham)]. After incubation for 10 minutes, the SPA beads were pelleted by centrifugation at 1000×G for 10 minutes. Measurement took place in a PerkinElmer Topcount scintillation counter. The measured data were normalized to 0% inhibition (enzyme reaction without inhibitor) and 100% inhibition (enzyme reaction in the presence of 0.1 μM staurosporine (from Sigma)). The IC50 values were determined by means of a 4-parameter fit using the company's own software.

T3 sequence (P35968 20-1356, species assumed): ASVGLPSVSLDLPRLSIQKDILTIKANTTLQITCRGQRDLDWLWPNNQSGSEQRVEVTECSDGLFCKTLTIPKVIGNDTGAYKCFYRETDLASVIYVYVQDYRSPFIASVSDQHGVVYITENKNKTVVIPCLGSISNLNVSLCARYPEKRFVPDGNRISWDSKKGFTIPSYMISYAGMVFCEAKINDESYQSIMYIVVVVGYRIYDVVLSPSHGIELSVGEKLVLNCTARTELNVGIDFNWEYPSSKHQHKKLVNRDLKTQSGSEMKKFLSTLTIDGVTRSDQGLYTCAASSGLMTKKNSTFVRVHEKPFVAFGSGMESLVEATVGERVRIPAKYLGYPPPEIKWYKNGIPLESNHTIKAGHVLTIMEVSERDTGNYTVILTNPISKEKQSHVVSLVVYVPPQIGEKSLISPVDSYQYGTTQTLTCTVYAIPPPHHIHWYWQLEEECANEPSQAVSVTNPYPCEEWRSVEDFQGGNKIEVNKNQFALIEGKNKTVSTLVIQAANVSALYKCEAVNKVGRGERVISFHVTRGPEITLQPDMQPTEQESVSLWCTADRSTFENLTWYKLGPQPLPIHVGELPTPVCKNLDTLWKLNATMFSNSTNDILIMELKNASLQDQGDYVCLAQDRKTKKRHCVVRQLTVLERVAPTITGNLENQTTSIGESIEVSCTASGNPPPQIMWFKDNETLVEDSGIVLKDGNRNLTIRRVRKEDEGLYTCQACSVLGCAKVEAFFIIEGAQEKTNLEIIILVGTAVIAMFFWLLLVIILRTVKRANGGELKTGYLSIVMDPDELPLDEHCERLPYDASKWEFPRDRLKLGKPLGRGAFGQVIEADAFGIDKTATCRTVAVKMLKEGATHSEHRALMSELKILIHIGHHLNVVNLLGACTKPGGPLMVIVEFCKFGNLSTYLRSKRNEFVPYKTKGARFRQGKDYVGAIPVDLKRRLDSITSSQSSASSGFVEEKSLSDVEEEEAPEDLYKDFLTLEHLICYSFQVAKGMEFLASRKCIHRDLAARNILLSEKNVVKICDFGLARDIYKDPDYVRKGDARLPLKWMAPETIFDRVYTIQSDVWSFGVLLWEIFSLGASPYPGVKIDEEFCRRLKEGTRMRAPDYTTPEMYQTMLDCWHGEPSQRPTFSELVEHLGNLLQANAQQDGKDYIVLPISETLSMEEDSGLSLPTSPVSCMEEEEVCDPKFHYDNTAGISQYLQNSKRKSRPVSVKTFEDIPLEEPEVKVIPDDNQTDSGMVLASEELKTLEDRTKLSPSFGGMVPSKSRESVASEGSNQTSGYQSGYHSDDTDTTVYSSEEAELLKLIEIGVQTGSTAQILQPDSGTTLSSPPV
T2 sequence (P06493 whole entry): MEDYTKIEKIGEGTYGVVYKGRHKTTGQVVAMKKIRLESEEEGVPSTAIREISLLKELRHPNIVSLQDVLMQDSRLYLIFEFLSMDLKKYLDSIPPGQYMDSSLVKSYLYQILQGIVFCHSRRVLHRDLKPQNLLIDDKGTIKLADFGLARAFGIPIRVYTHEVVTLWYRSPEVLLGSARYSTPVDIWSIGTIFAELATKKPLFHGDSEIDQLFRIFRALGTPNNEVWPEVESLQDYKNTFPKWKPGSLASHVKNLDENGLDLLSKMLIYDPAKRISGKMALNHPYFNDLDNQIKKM
T2 sequence (P14635 whole entry partner): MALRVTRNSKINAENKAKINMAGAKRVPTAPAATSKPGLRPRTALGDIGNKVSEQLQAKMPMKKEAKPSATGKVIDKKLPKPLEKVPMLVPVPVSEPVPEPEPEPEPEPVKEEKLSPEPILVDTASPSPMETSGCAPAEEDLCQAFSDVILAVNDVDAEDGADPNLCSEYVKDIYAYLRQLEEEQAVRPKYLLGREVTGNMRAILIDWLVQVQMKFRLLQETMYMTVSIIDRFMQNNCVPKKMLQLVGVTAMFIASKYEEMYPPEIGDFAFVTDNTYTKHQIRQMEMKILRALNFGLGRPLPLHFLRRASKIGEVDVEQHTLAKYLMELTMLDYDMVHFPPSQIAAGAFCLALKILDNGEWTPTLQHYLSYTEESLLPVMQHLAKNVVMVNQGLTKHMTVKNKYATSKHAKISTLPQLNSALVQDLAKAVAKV

SMILES	IC50 [1]	IC50 [2]	IC50 [3]	IC50 [4]	IC50 [5]
C[C@@H](Nc1nc(Nc2ccc(S(C)=NS(C)(=O)=O)cc2)ncc1Br)C(C)(C)O (mixture of isomers) [Example 18, (RS)—S-{4-[(5-Bromo-4-{[(R)-2-hydroxy-1,2-dimethylpropyl]amino}pyrimidin-2-yl)amino]phenyl}-N-mesyl-S-methylsulphimide]	170 nM	6 nM	50 nM	35 nM	400 nM
CC(=O)Nc1nnc(S(=O)(=O)N=S(C)c2ccc(Nc3ncc(Br)c(N[C@H](C)C(C)(C)O)n3)cc2)s1 (mixture of isomers) [Example 19, (RS)—N-{[5-(Acetylamino)-1,3,4-thiadiazol-2-yl]sulphonyl}-S-{4-[(5-bromo-4-{[(R)-2-hydroxy-1,2-dimethylpropyl]amino}pyrimidin-2-yl)amino]phenyl}-S-methyl-sulphimide]	1800 nM	25 nM	98 nM	320 nM	1100 nM
CCS(=O)(=O)N=S(C)c1ccc(Nc2ncc(Br)c(N[C@H](C)C(C)(C)O)n2)cc1 (mixture of isomers) [Example 20, (RS)—S-{4-[(5-Bromo-4-{[(R)-2-hydroxy-1,2-dimethylpropyl]amino}pyrimidin-2-yl)amino]phenyl}-N-(ethylsulphonyl)-S-methylsulphimide]	350 nM	10 nM	31 nM	35 nM	250 nM
CCCS(=O)(=O)N=S(C)c1ccc(Nc2ncc(Br)c(N[C@H](C)C(C)(C)O)n2)cc1 (mixture of isomers) [Example 21, (RS)—S-{4-[(5-Bromo-4-{[(R)-2-hydroxy-1,2-dimethylpropyl]amino}pyrimidin-2-yl)amino]phenyl}-S-methyl-N-(propylsulphonyl)sulphimide]	310 nM	12 nM	36 nM	49 nM	390 nM
C[C@@H](Nc1nc(Nc2ccc(S(C)=NS(=O)(=O)C(C)(C)C)cc2)ncc1Br)C(C)(C)O (mixture of isomers) [Example 22, (RS)—S-{4-[(5-Bromo-4-{[(R)-2-hydroxy-1,2-dimethylpropyl]amino}pyrimidin-2-yl)amino]phenyl}-N-(tert-butylsulphonyl)-S-methylsulphimide]	330 nM	22 nM	46 nM	44 nM	390 nM
Cc1ccc(S(=O)(=O)N=S(C)c2ccc(Nc3ncc(Br)c(NC(C)C)n3)cc2)cc1 (racemic) [Example 1, (RS)—S-(4-{[5-Bromo-4-(isopropylamino)pyrimidin-2-yl]amino}phenyl)-S-methyl-N-(tolylsulphonyl)sulphimide]	2200 nM	900 nM	> 1000 nM	37 nM	240 nM

Reference: US7943629B2, “Sulphimides as protein kinase inhibitors” (Bayer Schering Pharma AG, priority 2006, dated 2011)
